The test system of one data set is 518A2. Description: Cytotoxicity in human 518A2 cells by photometric SRB assay. The class given is functional, cell-based.
Another data set has as its system FaDu. Description: Cytotoxicity in human FADU cells by photometric SRB assay. The class given is functional, cell-based. (In general: Sulforhodamine B stains cellular protein and so reports cell mass.)
A further data set deals with HT-29. Description: Cytotoxicity in human HT-29 cells by photometric SRB assay. The class given is functional, cell-based.
The next data set relates to MCF7. Put plainly: Cytotoxicity in human MCF7 cells by photometric SRB assay. The class given is functional, cell-based.
Data set [1] concerns A549. Put plainly: Cytotoxicity in human A549 cells by photometric SRB assay. It counts as functional, cell-based.
The next data set concerns SW-1736. Description: Cytotoxicity in human SW1736 cells by photometric SRB assay. It counts as functional, cell-based.
The nature of data set [2]: Selectivity index, ratio of EC50 for mouse NIH/3T3 cells to EC50 for human A549 cells. It counts as toxicity. The settings on record: NIH/3T3 cells and A549 cells, read-out: Ratio EC50.
The subject of data set [3] is A549. Put plainly: Cytotoxicity in human A549 cells. It counts as functional, cell-based.

This is an account of results in ChEMBL document CHEMBL4265869, “Prodrugs of triterpenoids and their derivatives” (Eur J Med Chem, 2017).

By EC50 is commonly meant the concentration that produces a half-maximal response. Read a low EC50 as an effect from little substance. One may read the IC50 as the concentration that inhibits the measured activity by half. Read a low IC50 as higher potency.

Take `COC(=O)[C@]12CCC(C)(C)C[C@H]1C1=CC[C@@H]3[C@@]4(C)C[C@@H](O)[C@H](OS(N)(=O)=O)C(C)(C)[C@@H]4CC[C@@]3(C)[C@]1(C)CC2`: the EC50 in the data set with 518A2, in the data set on FaDu, with HT-29, with MCF7, in the data set on A549 [1] and with SW-1736 was 2.2 to 3.5 µM throughout.

Take `COC(=O)[C@]12CCC(C)(C)C[C@H]1C1=CC(=O)[C@@H]3[C@@]4(C)CC[C@H](OS(N)(=O)=O)C(C)(C)[C@@H]4CC[C@@]3(C)[C@]1(C)CC2`: in data set [2], the selectivity ratio is 2.7.

In the data set on A549 [3], `C/C=C(\C)C(=O)O[C@@H]1CC(C)(C)C[C@H]2C3=CC[C@@H]4[C@@]5(C)CC[C@H](OC(=O)Cc6ccccc6Cc6c(Cl)cccc6Cl)C(C)(C)[C@@H]5CC[C@@]4(C)[C@]3(C)CCC12C(=O)O` (single isomer, unassigned) came in with an IC50 of 0.15 µM.

The compound `C/C=C(\C)C(=O)O[C@@H]1CC(C)(C)C[C@H]2C3=CC[C@@H]4[C@@]5(C)CC[C@H](Oc6ccccc6C(C)=O)C(C)(C)[C@@H]5CC[C@@]4(C)[C@]3(C)CCC12C(=O)O` (single isomer, unassigned) had an IC50 in the data set with A549 [3] of 0.77 µM.

Turning to `CC(C)=CC(=O)O[C@@H]1CC(C)(C)C[C@H]2C3=CC[C@@H]4[C@@]5(C)CC[C@H](OC(=O)Cc6ccccc6Cc6c(Cl)cccc6Cl)C(C)(C)[C@@H]5CC[C@@]4(C)[C@]3(C)CCC12C(=O)O` (single isomer, unassigned), in the data set with A549 [3], the half-inhibitory concentration (IC50) was found to be 0.42 µM.
